Test results published in the supplement of paper PMC3974653.
Counter-ions that a name gives are not always drawn.

test system: MTT (mouse pheochromocytoma); assay: IC50 of cell viability (ATP content); settings: (24 or 48 h)
Procedure, shortened: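 Library compounds were tested at 8 final concentrations (0.5 nM to 46 µM) on MTT mouse pheochromocytoma cells for 24 or 48 hrs, with readout by CellTiter-Glo ATP luminescence. Signals were normalised with positive-control wells at 100% and DMSO wells at 0%. IC50 values were obtained by a four-parameter logistic fit.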

Row | IC50 of cell viability [µM] | Structure (SMILES)
1 | > 46 | CCCC(=O)O[C@]1(C(=O)COC(=O)CC)CC[C@@H]2[C@@H]3CCC4=CC(=O)CC[C@]4(C)[C@H]3[C@@H](O)C[C@@]21C [HYDROCORTISONE PROBUTATE]
2 | > 46 | O=P(O)(O)C(O)(Cc1cnc2ccccn12)P(=O)(O)O [Minodronic acid]
3 | > 46 | O=C(NOCC1CC1)c1ccc(F)c(F)c1Nc1ccc(I)cc1Cl [CI-1040]
4 | > 46 | CCCCCCCC/C=C\CCCCCCCC(=O)O [Oleic acid]
5 | > 46 | CC/C(=C(/CC)c1ccc(OP(=O)(O)O)cc1)c1ccc(OP(=O)(O)O)cc1 [DIETHYLSTILBESTROL DIPHOSPHATE]
6 | > 46 | CCCCCCCC(=O)OCC(O)CO (centres undefined) [MONOCTANOIN]
7 | > 46 | [H]C1(CN)CC[C@@]([H])(CC1)C(=O)OC2=CC=C(CCC(O)=O)C=C2 (centres undefined) [Cetraxate hydrochloride]
8 | > 46 | O=C(O)c1ccc(N[C@@H]2OC[C@@H](O)[C@@H](O)[C@@H]2O)cc1 [Benaxibine]
9 | > 46 | CC(C)CCOC(=O)c1ccc(N(C)C)cc1 [Padimato]
10 | > 46 | CN/C(=N/C#N)NCCSCc1csc(N=C(N)N)n1 [TIOTIDINE]
11 | > 46 | CCCCCCCCCCCCCCCCCC(=O)OCC(C)O (centres undefined) [PROPYLENE GLYCOL STEARATE SE]
12 | > 46 | Fc1ccc(C(c2ccc(F)cc2)N2CCN(C/C=C/c3ccccc3)CC2)cc1 [FLUNARIZINE]
13 | > 46 | CNC(=O)OCc1cccc(COC(=O)NC)n1 [PYRIDINOL CARBAMATE]
14 | > 46 | CN1C(CCl)Nc2cc(Cl)c([S+](N)(=O)[O-])cc2[S+]1(=O)[O-] (centres undefined) [METHYCLOTHIAZIDE]
15 | > 46 | CO[C@@]1(NC(=O)CSC(F)F)C(=O)N2C(C(=O)O)=C(CSc3nnnn3CCO)CO[C@@H]21 [Flomoxef]
16 | > 46 | CC(C)(C)C(O)C=Cc1ccc2c(c1)OCO2 (centres undefined) [Stiripentol]
17 | > 46 | Cc1ncc(CO)c(CN)c1O [Pyridoxamine dichlorohydrate]
18 | > 46 | CN(C)CCc1c[nH]c2ccc(Cn3cncn3)cc12 [RIZATRIPTAN]
19 | > 46 | [Na+].[Na+].CC1(C)S[C@H]2[C@H](NC(=O)[C@H](C([O-])=O)C3=CSC=C3)C(=O)[N@]2[C@H]1C([O-])=O [Ticarcillin sodium]
20 | > 46 | CCC(C)(C)C(=O)O[C@@H]1C[C@H](C)\C=C2\C=C/[C@H](C)[C@@H](CC[C@H]3C[C@@H](O)CC(=O)O3)[C@@H]12 [Simvastatin]
21 | > 46 | COC(=O)c1cccnc1 [METHYL NICOTINATE]
22 | > 46 | CCC1OC(=O)C(C)[C@@H](O[C@H]2C[C@@](C)(OC)C(O)C(C)O2)C(C)[C@@H](O[C@@H]2OC(C)CC(N(C)C)C2O)[C@@](C)(O)CC(C)C(=O)[C@@H](C)C(O)[C@]1(C)O (some centres undefined) [ERYTHROMYCIN]
23 | > 46 | C/C(=C(/CCOC(=O)c1ccccc1)SS/C(CCOC(=O)c1ccccc1)=C(\C)N(C=O)Cc1cnc(C)nc1N)N(C=O)Cc1cnc(C)nc1N [Bisbentiamine]
24 | > 46 | Oc1nc(O)c2nc(O)[nH]c2n1.[NaH] [URIC ACID]
25 | > 46 | CC1(C)[C@@H](O)CC[C@@]2(C)[C@H]1CC[C@]3(C)[C@@H]2C(=O)\C=C/4[C@@H]5C[C@](C)(CC[C@]5(C)CC[C@@]34C)C(O)=O [ENOXOLONE]
26 | > 46 | CC1(C)NC(=O)N(c2ccc([N+](=O)[O-])c(C(F)(F)F)c2)C1=O [Nilutamide]
27 | > 46 | NCCCC[C@H](N[C@@H](CCc1ccccc1)C(=O)O)C(=O)N1CCC[C@@H]1C(=O)O.O.O [Lisinopril]

Row | IC50 of cell viability [µM] | Structure (SMILES)
28 | > 46 | COc1ccc2[nH]c([S+]([O-])Cc3ncc(C)c(OC)c3C)nc2n1 (centres undefined) [TENATOPRAZOLE]
29 | > 46 | CC[C@@H]1/C=C(\C)C[C@H](C)C[C@H](OC)[C@H]2O[C@@](O)(C(=O)C(=O)N3CCCC[C@H]3C(=O)O[C@H](/C(C)=C/[C@@H]3CC[C@H](Cl)[C@H](OC)C3)[C@H](C)[C@@H](O)CC1=O)[C@H](C)C[C@@H]2OC [PIMECROLIMUS]
30 | > 46 | CC1(Cn2ccnn2)[C@H](C(=O)O)N2C(=O)C[C@H]2[S+]1(=O)[O-] (some centres undefined) [Tazobactam sodium]
31 | > 46 | CC(CC=O)CCCC(C)(C)O (centres undefined) [HYDROXYCITRONELLAL]
32 | > 46 | CC1=NN(c2ccccc2)C(=O)C1 [1-Phenyl-3-methyl-5-pyrazolone]
33 | > 46 | O=[S+]([O-])(O)C(F)(F)C(F)(F)C(F)(F)C(F)(F)C(F)(F)C(F)(F)C(F)(F)C(F)(F)F [Perfluorooctane sulfonic acid]
34 | > 46 | CCCCCCCCCCCCCCCCCCOP(=O)([O-])OC1CC[N+](C)(C)CC1 [Perifosine]
35 | > 46 | Cn1cnc2c(F)c(Nc3ccc(Br)cc3Cl)c(C(=O)NOCCO)cc21 [Selumetinib]
36 | > 46 | O=C1c2ccccc2C(=O)C1c1ccc(Br)cc1 [Bromindione]
37 | > 46 | Oc1c(I)cc(Cl)c2cccnc12 [Iodochlorohydroxyquinoline]
38 | > 46 | NC(=O)N[C@@H](CCC(=O)O)C(=O)O [N-CARBAMYL-L-GLUTAMIC ACID]
39 | > 46 | CO/N=C(\C(=O)NC1C(=O)N2C(C(=O)OCOC(=O)C(C)(C)C)=C(/C=C\c3scnc3C)CSC12)c1csc(N)n1 (centres undefined) [CEFDITORIN PIVOXIL]
40 | > 46 | COC1=C(N2CCNC(C)C2)C(=CC3=C1N(\C=C(C(O)=O)/C3=O)C4CC4)F (centres undefined) [GATIFLOXACIN]
41 | > 46 | O=C(O[C@H]1CN2CCC1CC2)N1CCc2ccccc2[C@@H]1c1ccccc1 [SOLIFENACIN SUCCINATE]
42 | > 46 | Cc1cc2c(OCC(CNC(C)(C)C)OC(=O)c3ccccc3)cccc2[nH]1 (centres undefined) [BOPINDOLOL]
43 | > 46 | CC1=C(/C=C/C(C)=C\C=C\C(C)=C\C=C\C=C(C)\C=C\C=C(C)\C=C\C2=C(C)C[C@@H](O)CC2(C)C)C(C)(C)C[C@H](O)C1 [ZEAXANTHIN]
44 | > 46 | CN(C)CCO[C@](C)(c1ccccc1)c1ccccn1.O=C(O)CCC(=O)O [Doxylamine succinate]
45 | > 46 | CC1=CCC(C(C)(C)O)CC1 (racemic) [Terpineol, mixture of isomers]
46 | > 46 | CCCCNc1c(C(=O)OCC)c(C)nc2c1cnn2CC [Tracazolate hydrochloride]
47 | > 46 | C[C@H]1O[C@H](C[C@H](O)[C@@H]1O)O[C@H]2[C@@H](O)C[C@@H](O[C@@H]2C)O[C@H]3[C@@H](O)C[C@@H](O[C@@H]3C)O[C@H]4CC[C@@]5(C)[C@H](CC[C@@H]6[C@@H]5C[C@@H](O)[C@]7(C)[C@H](CC[C@]67O)C/8=C/C(=O)OC8)C4 [Digoxin]
48 | > 46 | NC(C(=O)O)c1ccc(O)cc1 (centres undefined) [OXFENICINUM]
49 | > 46 | CC1(C)O[C@@H]2C[C@H]3[C@@H]4CC\C5=C\C(=O)\C=C/[C@]5(C)[C@H]4C(O)C[C@]3(C)[C@@]2(O1)C(=O)CO (some centres undefined) [DESONIDE]
50 | > 46 | CC(C)(C)NC(=O)[C@@H]1CN(Cc2cccnc2)CCN1C[C@@H](O)C[C@@H](Cc1ccccc1)C(=O)N[C@H]1c2ccccc2C[C@H]1O [INDINAVIR SULFATE]
51 | > 46 | OCC1O[C@H](OC2C(CO)O[C@@](O)(CO)C2O)C(O)C(O)C1O (some centres undefined) [LACTULOSE]
52 | > 46 | OC(=O)C(CC/1=C/C(=O)NC2=CC=CC=C12)NC(=O)C3=CC=C(Cl)C=C3 (centres undefined) [REBAMIPIDE]
53 | > 46 | CCCCCCCC/C=C\CCCCCCCCN [DECTAFLURUM]
54 | > 46 | C[C@H]1C[C@H]2[C@H]3CC\C4=C\C(=O)\C=C/[C@@]4(C)[C@@]3(Cl)[C@@H](O)C[C@]2(C)[C@]1(OC(=O)C5=CC=CO5)C(=O)CCl [Mometasone furoate]

Row | Structure (SMILES) | IC50 of cell viability [µM]
55 | O=C(O)/C=C/C(=O)O [MALEIC ACID] | > 46
56 | ClC1=CC=C2N(CC3CC3)C(=O)C\N=C(\C4=CC=CC=C4)C2=C1 [PRAZEPAM] | > 46
57 | C[C@]12CC[C@H]3[C@@H](C\C=C/4C[C@@H](O)CC[C@]34C)[C@@H]1CCC2=O [Prasterona] | > 46
58 | COP(=S)(OC)Oc1ccc(SC)c(C)c1 [Fenthion (Baytex)] | > 46
59 | CC(C)NCC(O)c1ccc([N+](=O)[O-])cc1 (centres undefined) [Nifenalol] | > 46
60 | [NH2][Pt]1([NH2])[O]C(=O)C2(CCC2)C(=O)[O]1 [CARBOPLATIN] | > 46
61 | COc1ccc(OC)c(CC(C)N)c1 (single isomer, unassigned; (-)) [(-)-2,5-Dimethoxyamphetamine] | > 46
62 | NCC1O[C@@H](O[C@@H]2C(O)[C@H](O[C@H]3OC(CO)C(O)C(N)C3O)[C@@H](N)C[C@H]2N)C(N)C(O)C1O.O=[S+]([O-])(O)O (some centres undefined) [BEKANAMYCIN SULFATE] | > 46
63 | c1ccc2c(c1)Nc1ccccc1S2 [Phenothiazine] | > 46
64 | NCCc1ccc(O)cc1 [4-HYDROXYPHENETHYLAMINE] | > 46
65 | C\C(C)=C\[C@@H]1[C@@H](C(=O)OCN2C(=O)CN(CC#C)C2=O)C1(C)C [Imiprothrin] | > 46
66 | CN1C2CCC1CC(OC(=O)c1cc(Cl)cc(Cl)c1)C2 (centres undefined) | > 46
67 | CCOC(=O)Nc1ccc(NCc2ccc(F)cc2)nc1N.O=C(O)/C=C\C(=O)O [Flupirtine maleate] | > 46
68 | N[C@@H]1C[C@H]1c1ccccc1 [Tranylcypromine hydrochloride] | > 46
69 | COc1ccc2c3c1OC1[C@H](O)CCC4[C@@H](C2)N(C)CC[C@]314 (some centres undefined) [Dihydroisocodeine] | > 46
